Measurements: patent publication US20230312583A1, “1H-IMIDAZO [4,5-H] QUINAZOLINE COMPOUND AS NOVEL SELECTIVE FLT3 INHIBITORS” (SHENGKE PHARMACEUTICALS (JIANGSU) LTD., priority 2020, published 2023)

Assays:
Type in all cases: biochemical
Conditions in all cases: 10 μM ATP
[1] = biological target: CDK4/cyclin D1 (Homo sapiens (Human), UniProt P11802); test: Radiometric 33P-ATP kinase inhibition assay, CDK4/cyclin
Description: (§1) Reactions were carried out in the presence of 10 μM ATP.
(§2) Procedures: • 1. Compounds were prepared in freshly prepared reaction buffers containing 20 mM HEPES (pH 7.5), 10 mM MgCl2, 1 mM EGTA, 0.01% Brij35, 0.02 mg/ml, BSA, 0.1 mM Na3VO4, 2 mM DTT, and 1% DMSO. • 2. […] Kinase such as 10 ng of recombinant CDK4/cyclin D1 (Life Technologies PV4204) diluted in a kinase buffer (20 mM Tris pH7.5, 10 mM MgCl2, 0.01% NP-40, 2 mM DTT), and incubated at room temperature for 30 minutes together with indicated concentration of inhibitors. • 4. Compounds in DMSO were added into the kinase reaction mixture utilizing acoustic technology (Echo550). • 5. 33P-ATP (specific activity 0.01 μCi/μl final) was added into the reaction mixture to initiate the reaction. • 6. The reaction mixture was incubated for 120 minutes at room temperature. • 7. […] Filters were extensively washed with 0.75% phosphoric acid. • 9. The radioactive phosphorylated substrate remaining on the filter paper was measured.
(§3) Kinase activity data were expressed as the percent remaining kinase activity in test samples compared to vehicle (dimethyl sulfoxide) reactions. IC50 values and curve fits were obtained using Prism4 Software (GraphPad).

[2] = biological target: C-Klt (Homo sapiens (Human), UniProt P10721); test: Radiometric 33P-ATP kinase inhibition assay, C-Klt
Sequence of C-Klt (P10721 26-976): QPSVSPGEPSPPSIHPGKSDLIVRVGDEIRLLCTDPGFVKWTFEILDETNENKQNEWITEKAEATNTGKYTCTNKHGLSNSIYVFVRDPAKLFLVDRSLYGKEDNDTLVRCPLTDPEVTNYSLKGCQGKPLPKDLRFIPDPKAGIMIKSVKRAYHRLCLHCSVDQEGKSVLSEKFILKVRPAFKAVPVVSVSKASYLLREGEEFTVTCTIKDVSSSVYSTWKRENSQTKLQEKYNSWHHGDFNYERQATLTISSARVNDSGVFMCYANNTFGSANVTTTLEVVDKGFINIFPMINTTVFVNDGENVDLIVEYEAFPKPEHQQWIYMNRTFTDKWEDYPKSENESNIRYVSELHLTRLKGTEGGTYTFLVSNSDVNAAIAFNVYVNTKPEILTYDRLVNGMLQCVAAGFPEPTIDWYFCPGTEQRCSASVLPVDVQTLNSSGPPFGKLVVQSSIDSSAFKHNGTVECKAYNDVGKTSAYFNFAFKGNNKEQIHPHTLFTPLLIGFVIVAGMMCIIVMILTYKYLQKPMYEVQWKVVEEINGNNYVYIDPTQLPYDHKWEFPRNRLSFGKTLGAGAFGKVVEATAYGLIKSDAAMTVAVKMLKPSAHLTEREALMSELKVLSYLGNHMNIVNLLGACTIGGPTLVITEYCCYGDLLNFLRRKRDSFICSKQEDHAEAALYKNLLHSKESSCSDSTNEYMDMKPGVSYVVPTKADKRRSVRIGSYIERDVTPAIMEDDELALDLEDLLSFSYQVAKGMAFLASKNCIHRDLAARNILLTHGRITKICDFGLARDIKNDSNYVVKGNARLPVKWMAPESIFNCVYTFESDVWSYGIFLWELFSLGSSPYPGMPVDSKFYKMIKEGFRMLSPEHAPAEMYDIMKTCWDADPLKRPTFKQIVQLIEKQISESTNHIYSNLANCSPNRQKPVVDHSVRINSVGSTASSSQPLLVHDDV
Description: as §1, §2, §3

[3] = biological target: CDK2/cyclin E (Homo sapiens (Human), UniProt P24941); test: Radiometric 33P-ATP kinase inhibition assay, CDK2/cyclin E
Description: as §1, §2, §3

[4] = biological target: CDK1/cyclin B (Homo sapiens (Human), UniProt P06493); test: Radiometric 33P-ATP kinase inhibition assay, CDK1/cyclin B
Sequence of CDK1/cyclin B (P06493 whole entry, species assumed): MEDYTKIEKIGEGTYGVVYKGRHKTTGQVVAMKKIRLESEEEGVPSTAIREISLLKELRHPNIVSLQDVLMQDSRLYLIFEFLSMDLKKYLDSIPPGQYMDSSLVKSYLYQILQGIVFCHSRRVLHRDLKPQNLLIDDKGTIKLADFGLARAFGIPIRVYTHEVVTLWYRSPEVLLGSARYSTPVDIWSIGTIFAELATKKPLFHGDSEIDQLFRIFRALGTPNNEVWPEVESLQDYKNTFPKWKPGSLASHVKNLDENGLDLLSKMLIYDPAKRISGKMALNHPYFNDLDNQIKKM
Sequence of CDK1/cyclin B (P14635 whole entry partner, species assumed): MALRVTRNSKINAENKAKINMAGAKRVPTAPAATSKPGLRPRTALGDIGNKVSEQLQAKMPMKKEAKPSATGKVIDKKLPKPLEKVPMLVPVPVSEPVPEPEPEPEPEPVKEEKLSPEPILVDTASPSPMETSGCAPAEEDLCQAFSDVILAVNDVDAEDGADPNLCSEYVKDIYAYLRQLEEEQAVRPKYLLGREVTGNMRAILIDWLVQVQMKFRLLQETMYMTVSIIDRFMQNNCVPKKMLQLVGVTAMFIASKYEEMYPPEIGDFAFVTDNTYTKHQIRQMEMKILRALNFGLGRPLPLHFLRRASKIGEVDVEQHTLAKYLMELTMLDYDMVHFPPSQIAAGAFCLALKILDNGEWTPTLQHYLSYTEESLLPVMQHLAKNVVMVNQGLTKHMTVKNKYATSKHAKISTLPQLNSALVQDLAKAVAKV
Description: as §1, §2, §3

[5] = biological target: CDK6/cyclin D1 (Homo sapiens (Human), UniProt Q00534); test: Radiometric 33P-ATP kinase inhibition assay, CDK6/cyclin D1
Sequence of CDK6/cyclin D1 (Q00534 whole entry, species assumed): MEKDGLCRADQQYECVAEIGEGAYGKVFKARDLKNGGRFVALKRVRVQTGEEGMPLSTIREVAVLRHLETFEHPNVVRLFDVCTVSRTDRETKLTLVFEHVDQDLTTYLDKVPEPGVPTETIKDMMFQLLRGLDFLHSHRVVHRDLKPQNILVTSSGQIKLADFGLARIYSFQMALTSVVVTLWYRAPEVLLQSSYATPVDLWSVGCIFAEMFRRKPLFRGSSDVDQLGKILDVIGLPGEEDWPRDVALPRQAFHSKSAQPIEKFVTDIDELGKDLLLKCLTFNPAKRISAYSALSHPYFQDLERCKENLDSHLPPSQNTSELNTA
Sequence of CDK6/cyclin D1 (P24385 whole entry partner, species assumed): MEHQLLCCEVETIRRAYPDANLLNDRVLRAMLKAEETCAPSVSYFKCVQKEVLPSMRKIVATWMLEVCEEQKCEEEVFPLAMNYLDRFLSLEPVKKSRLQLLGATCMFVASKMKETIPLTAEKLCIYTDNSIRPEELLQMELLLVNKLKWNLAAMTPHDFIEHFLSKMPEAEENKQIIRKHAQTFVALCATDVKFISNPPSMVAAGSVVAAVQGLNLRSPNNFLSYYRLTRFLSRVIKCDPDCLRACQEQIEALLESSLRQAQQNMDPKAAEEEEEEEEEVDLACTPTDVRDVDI
Description: as §1, §2, §3

Sequence of CDK4/cyclin D1 (P11802 whole entry): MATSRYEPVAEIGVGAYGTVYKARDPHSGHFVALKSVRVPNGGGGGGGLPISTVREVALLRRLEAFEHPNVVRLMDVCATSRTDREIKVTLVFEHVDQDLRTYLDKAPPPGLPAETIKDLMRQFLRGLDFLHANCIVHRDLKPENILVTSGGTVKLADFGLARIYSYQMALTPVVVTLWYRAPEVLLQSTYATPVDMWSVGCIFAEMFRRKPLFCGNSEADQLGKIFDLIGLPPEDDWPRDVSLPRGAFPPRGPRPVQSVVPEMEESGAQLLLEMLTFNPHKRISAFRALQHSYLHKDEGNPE
Sequence of CDK4/cyclin D1 (P24385 whole entry partner): as the sequence (P24385 whole entry partner, species assumed) above

Row | Compound | IC50 [1] [nM] | IC50 [2] [nM] | IC50 [3] [nM] | IC50 [4] [nM] | IC50 [5] [nM]
1 | CCOc1cc(Nc2ncc3ccc4ncn(CC)c4c3n2)ncc1N1CCN(CC)CC1 [Compound V-1, N-(4-ethoxy-5-(4-ethylpiperazin-1-yl)pyridin-2-yl)-1-ethyl-1H-imidazo[4,5-h]quinazolin-8-amine] | 221 | 21.3 | – | – | –
2 | COc1cc(Nc2ncc3ccc4ncn(C(C)C)c4c3n2)ncc1N1CCNC(C)(C)C1 [Compound I-5] | 95 | 25.6 | 483 | – | –
3 | CCOc1cc(Nc2ncc3ccc4ncn(C(C)C)c4c3n2)ncc1N1CCOCC1 [Compound I-8] | > 500 | 89.1 | > 500 | – | –
4 | COc1cc(Nc2ncc3ccc4ncn(C(C)C)c4c3n2)ncc1N1C2CCC1CNC2 [Compound I-11] | 98.3 | 29.8 | > 500 | – | –
5 | CNC1CN(c2cnc(Nc3ncc4ccc5ncn(C(C)C)c5c4n3)cc2OC)C1 [Compound I-6] | 245 | 94.7 | > 500 | – | –
6 | COc1cc(Nc2ncc3ccc4ncn(C(C)C)c4c3n2)ncc1N1CC2(CNC2)C1 [Compound I-4] | 52.9 | 16.6 | 69.5 | – | –
7 | COc1cc(Nc2ncc3ccc4ncn(C(C)C)c4c3n2)ncc1N1CC2(COC2)C1 [Compound I-3] | 186 | 60.6 | 46.9 | – | –
8 | CC(C)n1cnc2ccc3cnc(Nc4cc(OCCF)c(N5CC6CC(C5)N6)cn4)nc3c21 [Compound I-9] | 39.5 | 15 | 91.1 | – | 22.5
9 | CC(C)Oc1cc(Nc2ncc3ccc4ncn(C)c4c3n2)ncc1N1CCNCC1 [IV-1, N-(4-isopropoxy-5-(piperazin-1-yl)pyridin-2-yl)-1-methyl-1H-imidazo[4,5-h]quinazolin-8-amine] | – | 137 | – | – | –
10 | COc1cc(Nc2ncc3ccc4nc(C)n(C(C)C)c4c3n2)ncc1N1CCOCC1 [VI-1, 1-isopropyl-N-(4-methoxy-5-morpholinopyridin-2-yl)-2-methyl-1H-imidazo[4,5-h]quinazolin-8-amine] | 245 | 46 | 89.1 | 397 | –
11 | COc1cc(Nc2ncc3ccc4ncn(C(C)C)c4c3n2)ncc1N1CCN(C)CC1 [Compound I-1] | 61 | 32.1 | 189 | – | –
12 | CCN1CCN(c2cnc(Nc3ncc4ccc5ncn(C(C)C)c5c4n3)cc2OC)CC1 [Compound I-2, N-(5-(4-ethylpiperazin-1-yl)-4-methoxypyridin-2-yl)-1-isopropyl-1H-imidazo[4,5-h]quinazolin-8-amine] | 66.8 | – | 162 | – | –
13 | CCOc1cc(Nc2ncc3ccc4ncn(C(C)C)c4c3n2)ncc1N1CCN(C)CC1 [Compound I-7] | 99.1 | 31.5 | > 500 | – | –

Second part, led by results:

Row | IC50 [1] [nM] | IC50 [2] [nM] | IC50 [3] [nM] | Compound | IC50 [4] [nM] | IC50 [5] [nM]
14 | 267 | 118 | > 500 | COc1cc(Nc2ncc3ccc4ncn(C(C)C)c4c3n2)ncc1NCC1COC(=O)N1C (stereo not shown) [Compound I-15] | – | –
15 | 109 | – | – | CC#CCOc1cc(Nc2ncc3ccc4ncn(C(C)C)c4c3n2)ncc1N1CCNCC1 [Compound I-13] | – | –
16 | 292 | 111 | > 500 | CC(C)n1cnc2ccc3cnc(Nc4cc(OCC5CC5)c(N5CCNCC5)cn4)nc3c21 [Compound I-10] | 451 | –
17 | – | 75.1 | – | COc1cc(Nc2ncc3cc(C)c4ncn(C(C)C)c4c3n2)ccc1N1CCOCC1 [II-1, 1-isopropyl-N-(3-methoxy-4-morpholinophenyl)-4-methyl-1H-imidazo[4,5-h]quinazolin-8-amine] | – | –
18 | 66 | 15 | 301 | COc1cc(Nc2ncc3ccc4ncn(C(C)C)c4c3n2)ncc1N1CC2CCC1CN2 (stereo not shown) [Compound I-12] | – | –
19 | 46.1 | 70.9 | 436 | CC(C)n1cnc2ccc3cnc(Nc4cc(Oc5ccccc5)c(N5CCNCC5)cn4)nc3c21 [Compound I-14] | – | –
